Marks after values point to notes of the source that are not given here.
What was measured:
Lewis carcinoma (3LL) = assay: Transplantable Lewis carcinoma (3LL) in mice; format: in vivo
Procedure: These studies were carried out at the Institute for Toxicology, St. Petersburg, 2006, according to “Guidelines for the Study of Antitumor Activity of Pharmacological Agents” (“Manual on Experimental (Preclinical) Study of New Pharmacological Agents,” Ministry of Public Health of the Russian Federation, Remedium, Moscow, 2000, pp. 319-325).
The L1210 leukemia, breast adenocarcinoma Ca-755, and Lewis carcinoma (3LL) tumor cell strain were purchased from the Petrov Research Institute for Oncology, the Ministry of Public Health of the Russian Federation (St. Petersburg).
C 57 BL/6J line male mice with transplanted 3LL cells. Mouse ages: 6 to 8 weeks; body weights: 18 to 24 g.
The antitumor effect was ascertained through the following parameters: • ascite accumulation as animal body weight gain; • the lifetime of animals; and • tumor growth. The larger dimension of the tumor (length) and the smaller dimension normal thereto (width) were measured. The tumor volume was calculated, and the inhibition of tumor growth was calculated by a formula. The ascertainment criterion was the day when each individual tumor reached a volume of 500 mm^3.

[1] = system: human lymphoblastoid cells; assay: Cytotoxicity in human lymphoblastoid cells model; format: cell-based
[2] = system: A/Aichi/2/69 (H3N2) influenza virus; assay: Induced influenza pneumonia in mice
[3] = LD70, intramuscularly 50 mg/kg/day
[4] = LD70, intramuscularly 100 mg/kg/day
[5] = LD70, intramuscularly 200 mg/kg/day
[6] = LD70, intraperitoneally 50 mg/kg/day

Fullerene Poly(Aminocaproic Acid) of Formula C60(H3){NH(CH2)5COO—}3{NH3^+(CH2)5COOH}3 [Agent No. 1]
Day when the tumor reaches a volume of 500 mm³ (Lewis carcinoma (3LL); 100 mg/kg): 21.3 ± 1.21 days | Lifetime, M ± m (Lewis carcinoma (3LL); 100 mg/kg): 55.92 ± 0.98 days | day post transplantation when the first tumors were observed (Lewis carcinoma (3LL); 100 mg/kg): 7 days | Number of large (>3 mm) metastases in lungs, M ± m (Lewis carcinoma (3LL); 100 mg/kg (n = 12)): 5.8 ± 1.91 | Number of metastases in lungs, M ± m (Lewis carcinoma (3LL); 100 mg/kg (n = 12)): 53.5 ± 11.23 | Weight of lungs, mg M + m (Lewis carcinoma (3LL); 100 mg/kg (n = 12)): 491.9 ± 63.72 mg | percent inhibition (average tumor volume) compared to the control group (Lewis carcinoma (3LL); 100 mg/kg, day 10): 71.77% | percent inhibition (average tumor volume) compared to the control group (Lewis carcinoma (3LL); 100 mg/kg, day 17): 58.5% | Day when the tumor reaches a volume of 500 mm³ (Lewis carcinoma (3LL); 100 mg/kg, versus control): 27.3%* | Lifetime, Percent increase (Lewis carcinoma (3LL); 100 mg/kg, versus control): 70.42%* | Day when the tumor reaches a volume of 500 mm³ (Lewis carcinoma (3LL); 250 mg/kg): 20.5 ± 1.20 days | Lifetime, M ± m (Lewis carcinoma (3LL); 250 mg/kg): 56.38 ± 0.68 days | day post transplantation when the first tumors appeared (Lewis carcinoma (3LL); 250 mg/kg): 8 days | Number of large (>3 mm) metastases in lungs, M ± m (Lewis carcinoma (3LL); 250 mg/kg (n = 13)): 5.7 ± 1.54 | Number of metastases in lungs, M ± m (Lewis carcinoma (3LL); 250 mg/kg (n = 13)): 55.8 ± 11.60 | Weight of lungs, mg M + m (Lewis carcinoma (3LL); 250 mg/kg (n = 13)): 505.4 ± 68.82 mg | percent inhibition (average tumor volume) compared to the control group (Lewis carcinoma (3LL); 250 mg/kg, day 10): 84.37% | percent inhibition (average tumor volume) compared to the control group (Lewis carcinoma (3LL); 250 mg/kg, day 17): 54.2% | Day when the tumor reaches a volume of 500 mm³ (Lewis carcinoma (3LL); 250 mg/kg, versus control): 22.9%* | Lifetime, Percent increase (Lewis carcinoma (3LL); 250 mg/kg, versus control): 71.85%* | increase of the average lifetime against the control group (Lewis carcinoma (3LL); both doses): approximately 70% | Cell survival rate, % ([1]; 0.5 mcg/mL): 95% | Number of cells × 10^3/mL ([1]; 0.5 mcg/mL): 833 × 10^3/mL | Cell survival rate, % ([1]; 1.0 mcg/mL): 94% | Number of cells × 10^3/mL ([1]; 1.0 mcg/mL): 833 × 10^3/mL | Cell survival rate, % ([1]; 5.0 mcg/mL): 98% | Number of cells × 10^3/mL ([1]; 5.0 mcg/mL): 799 × 10^3/mL | Cell survival rate, % ([1]; 10.0 mcg/mL): 94% | Number of cells × 10^3/mL ([1]; 10.0 mcg/mL): 767 × 10^3/mL | Cell survival rate, % ([1]; 100 mcg/mL): 95% | cytotoxic effect on cells ([1]; concentrations of 0.5 to 10 mcg/mL): no cytotoxic effect | Average lifetime (days) [2, 3]: 13.3 (1-7 d., 1-8 d.) days | Percent death protection (%) [2, 3]: 50% | Percent body weight change in days post infection ([2]; LD70, intramuscularly 50 mg/kg/day, day 1): +20% | Percent body weight change in days post infection ([2]; LD70, intramuscularly 50 mg/kg/day, day 2): +22% | Percent body weight change in days post infection ([2]; LD70, intramuscularly 50 mg/kg/day, day 3): +22% | Percent body weight change in days post infection ([2]; LD70, intramuscularly 50 mg/kg/day, day 4): +17% | Percent body weight change in days post infection ([2]; LD70, intramuscularly 50 mg/kg/day, day 5): +11% | Percent body weight change in days post infection ([2]; LD70, intramuscularly 50 mg/kg/day, day 7): +9% | Percent body weight change in days post infection ([2]; LD70, intramuscularly 50 mg/kg/day, day 9): +11% | Percent body weight change in days post infection ([2]; LD70, intramuscularly 50 mg/kg/day, day 11): +19% | Percent body weight change in days post infection ([2]; LD70, intramuscularly 50 mg/kg/day, day 13): +26% | Percent death protection (%) [2, 4]: 70% | average lifetime [2, 4]: >16 days | Percent body weight change in days post infection ([2]; LD70, intramuscularly 100 mg/kg/day, day 1): +21% | Percent body weight change in days post infection ([2]; LD70, intramuscularly 100 mg/kg/day, day 2): +25% | Percent body weight change in days post infection ([2]; LD70, intramuscularly 100 mg/kg/day, day 3): +27% | Percent body weight change in days post infection ([2]; LD70, intramuscularly 100 mg/kg/day, day 4): +23% | Percent body weight change in days post infection ([2]; LD70, intramuscularly 100 mg/kg/day, day 5): +20% | Percent body weight change in days post infection ([2]; LD70, intramuscularly 100 mg/kg/day, day 7): +21.5% | Percent body weight change in days post infection ([2]; LD70, intramuscularly 100 mg/kg/day, day 9): +32% | Percent body weight change in days post infection ([2]; LD70, intramuscularly 100 mg/kg/day, day 11): +35.5% | Percent body weight change in days post infection ([2]; LD70, intramuscularly 100 mg/kg/day, day 13): +38% | Average lifetime (days) [2, 5]: 13.8 (1-7 d., 1-13 d.) days | Percent death protection (%) [2, 5]: 50% | Percent body weight change in days post infection ([2]; LD70, intramuscularly 200 mg/kg/day, day 1): +25% | Percent body weight change in days post infection ([2]; LD70, intramuscularly 200 mg/kg/day, day 2): +27% | Percent body weight change in days post infection ([2]; LD70, intramuscularly 200 mg/kg/day, day 3): +28% | Percent body weight change in days post infection ([2]; LD70, intramuscularly 200 mg/kg/day, day 4): +24% | Percent body weight change in days post infection ([2]; LD70, intramuscularly 200 mg/kg/day, day 5): +20% | Percent body weight change in days post infection ([2]; LD70, intramuscularly 200 mg/kg/day, day 7): +23% | Percent body weight change in days post infection ([2]; LD70, intramuscularly 200 mg/kg/day, day 9): +22% | Percent body weight change in days post infection ([2]; LD70, intramuscularly 200 mg/kg/day, day 11): +25% | Percent body weight change in days post infection ([2]; LD70, intramuscularly 200 mg/kg/day, day 13): +36.5% | Average lifetime (days) [2, 6]: 13.4 (2-8 d.) days | Percent death protection (%) [2, 6]: 50% | Percent body weight change in days post infection ([2]; LD70, intraperitoneally 50 mg/kg/day, day 1): +21% | Percent body weight change in days post infection ([2]; LD70, intraperitoneally 50 mg/kg/day, day 2): +27% | Percent body weight change in days post infection ([2]; LD70, intraperitoneally 50 mg/kg/day, day 3): +29% | Percent body weight change in days post infection ([2]; LD70, intraperitoneally 50 mg/kg/day, day 4): +21% | Percent body weight change in days post infection ([2]; LD70, intraperitoneally 50 mg/kg/day, day 5): +16% | Percent body weight change in days post infection ([2]; LD70, intraperitoneally 50 mg/kg/day, day 7): +15% | Percent body weight change in days post infection ([2]; LD70, intraperitoneally 50 mg/kg/day, day 9): +31%
